Source: PubChem BioAssay (NCI)
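Where inhibition never reached the appropriate level, the endpoint shown equals the highest concentration tested. Otherwise, values were interpolated linearly from a five-concentration, 48-hour dose response in 96-well plates. TGI: total growth inhibition.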

The molecules below were run on KM12 colon (assay: growth of human tumour cells (NCI), 48 h).
For CCOC(=O)C(=CNC(=S)c1ccncc1)C(=O)OCC, the TGI was over 100 µM.
For C=CCC(NCc1ccccc1)[C@H](OCc1ccccc1)[C@@H]1COC(C)(C)O1 (some centres undefined), the TGI was over 100 µM.

What follows are molecules tested on HOP-62 NSCLC (assay: growth of human tumour cells (NCI), 48 h).
CC(=O)Oc1c(C)cc2c(c1C)C(C)CN2C(C)=O (centres undefined) showed a TGI of over 100 µM.
CC1(C)COC(c2ccc(C(=O)c3ccc(Cl)cc3)cc2)=N1 gave a TGI of over 100 µM.
With CCOC1CCC2C(CCC(/C=C/c3ccc(O)c4ncccc34)N2C)C1 (centres undefined) the TGI was over 100 µM.
In the case of CCOC(=O)C(=CNC(=S)c1ccncc1)C(=O)OCC, the TGI is reported as over 100 µM.
Work on C=CCC(NCc1ccccc1)[C@H](OCc1ccccc1)[C@@H]1COC(C)(C)O1 (some centres undefined) yielded a TGI of over 100 µM.

These molecules were tested on SF-295 CNS (assay: growth of human tumour cells (NCI), 48 h).
Molecule CC(=O)Oc1c(C)cc2c(c1C)C(C)CN2C(C)=O (centres undefined) has a TGI of over 100 µM.
CC1(C)COC(c2ccc(C(=O)c3ccc(Cl)cc3)cc2)=N1 was tested, and the TGI was over 100 µM.
CCOC1CCC2C(CCC(/C=C/c3ccc(O)c4ncccc34)N2C)C1 (centres undefined) was tested, and the TGI was over 100 µM.
CCOC(=O)C(=CNC(=S)c1ccncc1)C(=O)OCC showed a TGI of over 100 µM.
Molecule C=CCC(NCc1ccccc1)[C@H](OCc1ccccc1)[C@@H]1COC(C)(C)O1 (some centres undefined) has a TGI of 99.6 µM.

Each molecule was assayed on RPMI-8226 leukemia (assay: growth of human tumour cells (NCI), 48 h).
CC(=O)Oc1c(C)cc2c(c1C)C(C)CN2C(C)=O (centres undefined) showed a TGI of over 100 µM.
With CC1(C)COC(c2ccc(C(=O)c3ccc(Cl)cc3)cc2)=N1 the TGI was over 100 µM.
For CCOC1CCC2C(CCC(/C=C/c3ccc(O)c4ncccc34)N2C)C1 (centres undefined), the TGI was over 100 µM.
Molecule CCOC(=O)C(=CNC(=S)c1ccncc1)C(=O)OCC has a TGI of over 100 µM.
Molecule C=CCC(NCc1ccccc1)[C@H](OCc1ccccc1)[C@@H]1COC(C)(C)O1 (some centres undefined) has a TGI of 44.4 µM.

Each molecule was assayed on NCI/ADR-RES ovarian (assay: growth of human tumour cells (NCI), 48 h).
Work on CC(=O)Oc1c(C)cc2c(c1C)C(C)CN2C(C)=O (centres undefined) yielded a TGI of over 100 µM.
CC1(C)COC(c2ccc(C(=O)c3ccc(Cl)cc3)cc2)=N1 gave a TGI of over 100 µM.
CCOC1CCC2C(CCC(/C=C/c3ccc(O)c4ncccc34)N2C)C1 (centres undefined) was tested, and the TGI was over 100 µM.
C=CCC(NCc1ccccc1)[C@H](OCc1ccccc1)[C@@H]1COC(C)(C)O1 (some centres undefined) showed a TGI of over 100 µM.

What follows are molecules tested on MDA-N (assay: growth of human tumour cells (NCI), 48 h).
For CC(=O)Oc1c(C)cc2c(c1C)C(C)CN2C(C)=O (centres undefined), the TGI was over 100 µM.
CC1(C)COC(c2ccc(C(=O)c3ccc(Cl)cc3)cc2)=N1 showed a TGI of over 100 µM.
CCOC1CCC2C(CCC(/C=C/c3ccc(O)c4ncccc34)N2C)C1 (centres undefined) gave a TGI of over 100 µM.
In the case of CCOC(=O)C(=CNC(=S)c1ccncc1)C(=O)OCC, the TGI is reported as over 100 µM.
Molecule C=CCC(NCc1ccccc1)[C@H](OCc1ccccc1)[C@@H]1COC(C)(C)O1 (some centres undefined) has a TGI of over 100 µM.

The molecules below were run on SN12C renal (assay: growth of human tumour cells (NCI), 48 h).
CC(=O)Oc1c(C)cc2c(c1C)C(C)CN2C(C)=O (centres undefined) showed a TGI of over 100 µM.
Molecule CC1(C)COC(c2ccc(C(=O)c3ccc(Cl)cc3)cc2)=N1 has a TGI of over 100 µM.
With CCOC1CCC2C(CCC(/C=C/c3ccc(O)c4ncccc34)N2C)C1 (centres undefined) the TGI was over 100 µM.
Work on CCOC(=O)C(=CNC(=S)c1ccncc1)C(=O)OCC yielded a TGI of over 100 µM.
C=CCC(NCc1ccccc1)[C@H](OCc1ccccc1)[C@@H]1COC(C)(C)O1 (some centres undefined) showed a TGI of over 100 µM.

These molecules were tested on PC-3 prostate (assay: growth of human tumour cells (NCI), 48 h).
CC(=O)Oc1c(C)cc2c(c1C)C(C)CN2C(C)=O (centres undefined) was tested, and the TGI was over 100 µM.
CC1(C)COC(c2ccc(C(=O)c3ccc(Cl)cc3)cc2)=N1 showed a TGI of over 100 µM.
Work on CCOC1CCC2C(CCC(/C=C/c3ccc(O)c4ncccc34)N2C)C1 (centres undefined) yielded a TGI of over 100 µM.
With CCOC(=O)C(=CNC(=S)c1ccncc1)C(=O)OCC the TGI was over 100 µM.
Molecule C=CCC(NCc1ccccc1)[C@H](OCc1ccccc1)[C@@H]1COC(C)(C)O1 (some centres undefined) has a TGI of over 100 µM.

What follows are molecules tested on SR leukemia (assay: growth of human tumour cells (NCI), 48 h).
Molecule CCOC1CCC2C(CCC(/C=C/c3ccc(O)c4ncccc34)N2C)C1 (centres undefined) has a TGI of over 100 µM.
CCOC(=O)C(=CNC(=S)c1ccncc1)C(=O)OCC was tested, and the TGI was over 100 µM.
C=CCC(NCc1ccccc1)[C@H](OCc1ccccc1)[C@@H]1COC(C)(C)O1 (some centres undefined) showed a TGI of 55 µM.

Each molecule was assayed on HCT-116 colon (assay: growth of human tumour cells (NCI), 48 h).
Work on CC(=O)Oc1c(C)cc2c(c1C)C(C)CN2C(C)=O (centres undefined) yielded a TGI of over 100 µM.
CC1(C)COC(c2ccc(C(=O)c3ccc(Cl)cc3)cc2)=N1 was tested, and the TGI was over 100 µM.
In the case of CCOC(=O)C(=CNC(=S)c1ccncc1)C(=O)OCC, the TGI is reported as over 100 µM.
In the case of C=CCC(NCc1ccccc1)[C@H](OCc1ccccc1)[C@@H]1COC(C)(C)O1 (some centres undefined), the TGI is reported as over 100 µM.

The molecules below were run on COLO 205 colon (assay: growth of human tumour cells (NCI), 48 h).
CC(=O)Oc1c(C)cc2c(c1C)C(C)CN2C(C)=O (centres undefined) gave a TGI of over 100 µM.
In the case of CC1(C)COC(c2ccc(C(=O)c3ccc(Cl)cc3)cc2)=N1, the TGI is reported as over 100 µM.
With CCOC1CCC2C(CCC(/C=C/c3ccc(O)c4ncccc34)N2C)C1 (centres undefined) the TGI was 11.9 µM.
CCOC(=O)C(=CNC(=S)c1ccncc1)C(=O)OCC was tested, and the TGI was over 100 µM.
For C=CCC(NCc1ccccc1)[C@H](OCc1ccccc1)[C@@H]1COC(C)(C)O1 (some centres undefined), the TGI was 41.3 µM.

The molecules below were run on OVCAR-5 ovarian (assay: growth of human tumour cells (NCI), 48 h).
Work on CC(=O)Oc1c(C)cc2c(c1C)C(C)CN2C(C)=O (centres undefined) yielded a TGI of over 100 µM.
For CC1(C)COC(c2ccc(C(=O)c3ccc(Cl)cc3)cc2)=N1, the TGI was over 100 µM.
Molecule CCOC1CCC2C(CCC(/C=C/c3ccc(O)c4ncccc34)N2C)C1 (centres undefined) has a TGI of over 100 µM.
CCOC(=O)C(=CNC(=S)c1ccncc1)C(=O)OCC was tested, and the TGI was over 100 µM.
C=CCC(NCc1ccccc1)[C@H](OCc1ccccc1)[C@@H]1COC(C)(C)O1 (some centres undefined) showed a TGI of over 100 µM.

What follows are molecules tested on HCC-2998 colon (assay: growth of human tumour cells (NCI), 48 h).
In the case of CC(=O)Oc1c(C)cc2c(c1C)C(C)CN2C(C)=O (centres undefined), the TGI is reported as over 100 µM.
Molecule CC1(C)COC(c2ccc(C(=O)c3ccc(Cl)cc3)cc2)=N1 has a TGI of over 100 µM.
With CCOC1CCC2C(CCC(/C=C/c3ccc(O)c4ncccc34)N2C)C1 (centres undefined) the TGI was over 100 µM.
CCOC(=O)C(=CNC(=S)c1ccncc1)C(=O)OCC was tested, and the TGI was over 100 µM.

These molecules were tested on LOX IMVI melanoma (assay: growth of human tumour cells (NCI), 48 h).
CC(=O)Oc1c(C)cc2c(c1C)C(C)CN2C(C)=O (centres undefined) gave a TGI of over 100 µM.
Molecule CC1(C)COC(c2ccc(C(=O)c3ccc(Cl)cc3)cc2)=N1 has a TGI of over 100 µM.
For CCOC(=O)C(=CNC(=S)c1ccncc1)C(=O)OCC, the TGI was over 100 µM.
For C=CCC(NCc1ccccc1)[C@H](OCc1ccccc1)[C@@H]1COC(C)(C)O1 (some centres undefined), the TGI was 72 µM.

What follows are molecules tested on UO-31 renal (assay: growth of human tumour cells (NCI), 48 h).
CC(=O)Oc1c(C)cc2c(c1C)C(C)CN2C(C)=O (centres undefined) was tested, and the TGI was over 100 µM.
For CC1(C)COC(c2ccc(C(=O)c3ccc(Cl)cc3)cc2)=N1, the TGI was over 100 µM.
With CCOC1CCC2C(CCC(/C=C/c3ccc(O)c4ncccc34)N2C)C1 (centres undefined) the TGI was over 100 µM.
